Measurements published in patent US20170009272A1, “IN-SILICO BASED TECHNIQUES IN THE IDENTIFICATION OF POTENT ß-GLUCORONIDASE INHIBITORS” (priority 2015, published 2017).
Where two headings read alike, the source gives them in different places.

Key:
[1] = Cytotoxicity assay (MTT) on 3T3 mouse fibroblast cells; format: cell-based; details: 1-30 μM tested
Procedure: (§1) Cytotoxicity assay Protocol: Cytotoxic activity of compounds was evaluated in 96-well flat-bottomed micro plates by using the standard MTT (3-[4,5-dimethylthiazole-2-yl]-2,5-diphenyl-tetrazolium bromide) colorimetric assay (15). For this purpose, 3T3 (mouse fibroblast) cells were cultured in Dulbecco's Modified Eagle Medium, supplemented with 5% of fetal bovine serum (FBS), 100 IU/ml of penicillin and 100 μg/ml of streptomycin in 75 cm^2 flasks, and kept in 5% CO2 incubator at 37° C. Exponentially growing cells were harvested, counted with haemocytometer and diluted with a particular medium. Cell culture with the concentration of 5×10^4 cells/ml was prepared and introduced (100 μL/well) into 96-well plates.
(§2) After overnight incubation, medium was removed and 200 μL of fresh medium was added with different concentrations of compounds (1-30 μM). After 48 hrs, 200 ptL MTT (0.5 mg/ml) was added to each well and incubated further for 4 hrs. Subsequently, 100 μLof DMSO was added to each well. The extent of MTT reduction to formazan within cells was calculated by measuring the absorbance at 540 nm, using a micro plate reader (Spectra Max plus, Molecular Devices, Calif., USA). The cytotoxicity was recorded as concentration causing 50% growth inhibition (IC50) for 3T3 cells. The percent inhibition was calculated by using the following formula
(§3) % inhibition=100−((mean of O.D of test compound−mean of O.D of negative control)/(mean of O.D of positive control−mean of O.D of negative control)*100).
(§4) The results (% inhibition) were processed by using Soft-Max Pro software (Molecular Device, USA).

β-glucoronidase = target: T1, β-glucoronidase (Escherichia coli, UniProt P05804); experiment: β-Glucuronidase inhibition assay (spectrophotometric, p-nitrophenyl-β-D-glucuronide substrate); format: biochemical; details: for % inhibition: test concentration not given
T1 construct: purchased Sigma Aldrich G7396-25KU
T1 sequence (P05804 whole entry): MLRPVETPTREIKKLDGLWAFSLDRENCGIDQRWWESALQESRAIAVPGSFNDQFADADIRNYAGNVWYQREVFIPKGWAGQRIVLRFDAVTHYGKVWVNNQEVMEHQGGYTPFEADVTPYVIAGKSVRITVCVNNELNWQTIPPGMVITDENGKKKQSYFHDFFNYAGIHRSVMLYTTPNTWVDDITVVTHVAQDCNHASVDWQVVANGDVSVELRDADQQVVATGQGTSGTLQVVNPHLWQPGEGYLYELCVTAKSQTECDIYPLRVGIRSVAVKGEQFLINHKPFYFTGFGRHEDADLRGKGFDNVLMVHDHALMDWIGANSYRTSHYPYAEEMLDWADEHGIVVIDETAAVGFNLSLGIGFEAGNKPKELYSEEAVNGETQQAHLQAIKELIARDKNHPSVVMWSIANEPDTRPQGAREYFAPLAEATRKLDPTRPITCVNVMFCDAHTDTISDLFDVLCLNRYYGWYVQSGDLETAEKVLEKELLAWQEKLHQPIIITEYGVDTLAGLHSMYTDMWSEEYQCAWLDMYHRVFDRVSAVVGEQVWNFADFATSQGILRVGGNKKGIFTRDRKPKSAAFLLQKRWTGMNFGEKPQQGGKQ
Procedure: β-Glucuronidase inhibition assay protocol: Inhibitory activity of β-Glucuronidase was determined with the help of spectrophotometric method by measuring the absorbance at 405 nm of p-nitro phenol formed from the substrate (p-nitro phenyl-β-D-glucuronide, N1627-250 mg, Sigma Aldrich). The total reaction volume was 250 μL. The compound dissolved in DMSO (100%), which becomes 2% in the ultimate assay (250 μL) and the similar conditions were used for standard (D-saccharin acid 1,4-lactone, Sigma Aldrich). The reaction mixture contained 185 μL of 0.1 M acetate buffer, 5 μL of test compound solution, 10 μL of (1U) enzyme solution (G7396-25KU, Sigma Aldrich) was incubated at 37° C. for 30 min. The plates were read on a multiplate reader (SpectraMax plus 384) at 405 nm after the addition of 50 μL of 0.4 mM p-nitrophenyl-β-D-glucuronide. All assays were performed in triplicate. IC50 Values were calculated by using EZ-Fit software (Perrella Scientific Inc., Amherst, Mass., U.S.A.). These values are the mean of three independent readings.

[2] = system: 3T3 (mouse fibroblast) cells; experiment: Cytotoxicity assay (MTT) on 3T3 mouse fibroblast cells; format: cell-based; details: 48 hrs, 1-30 μM tested
Procedure: as §1, §2, §3, §4

[3] = β-glucuronidase, 37° C., 30 min incubation, absorbance at 405 nm, mean of three readings, read-out: IC50

Structure (SMILES)	IC50 at 48 h [1] [µM]	IC50 (β-glucoronidase) [µM]	% inhibition (β-glucoronidase; β-glucuronidase) [%]	IC50 (β-glucoronidase; [3]) [µM]	IC50 [2] [µM]
Oc1cccc(C(c2c[nH]c3ccc(Br)cc23)c2c[nH]c3ccc(Br)cc23)c1O [Compound 1]	16.8 ± 0.997	1.2 ± 1.03	97.8		
O=C(/C=C/c1ccc(O)cc1)OC[C@@H]1C[C@H](Oc2cc(O)c3c(=O)cc(-c4ccc(O)cc4)oc3c2)[C@@H](O)[C@H](O)[C@H]1O [Compound 3]	> 30		96.9	4.5 ± 0.44	
COc1ccc(C=NN2C(c3n[nH]c(=S)[nH]3)=C(O)c3ccccc3S2(=O)=O)cc1OC [Compound 5]	13.8 ± 0.967	11.41 ± 0.04	78.1		
C=S1(=O)c2ccccc2C(O)=C(c2n[nH]c(=S)[nH]2)N1/N=C/c1ccc(OC)c(OC)c1OC (centres unmarked) [Compound 6]	17.1 ± 1.41		81.0	11.8 ± 0.86	
CCN(CC)c1ccc(/C=N/N2C(c3n[nH]c(=S)[nH]3)=C(O)c3ccccc3S2(=O)=O)cc1 [Compound 7]	> 30		95.1	14.7 ± 1.88	
COc1cccc(/C=N/N2C(c3n[nH]c(=S)[nH]3)=C(O)c3ccccc3S2(=O)=O)c1O [Compound 10]			93.4		19.5 ± 1.07
N#Cc1ccc2[nH]cc(C(c3ccccc3[N+](=O)[O-])c3c[nH]c4ccc(C#N)cc34)c2c1 [Compound 11]	9.56 ± 0.134	34.9 ± 0.21	57.3		
O=C1OC(C(O)C(=O)O)C(O)C1O [D-sacharric 1,4-lactone, D-saccharic acid, 1,4-lactone, reference compound]			89.4	45.5 ± 2.16	
C[C@@H]1C[C@@H]([C@H](O)CC2CC(=O)NC(=O)C2)C(=O)[C@@H](C)C1 [cycloheximide, reference compound]	0.2				
